Test results published in patent US9914969B2, “Fads regulation” (CORNELL UNIVERSITY, priority 2012, dated 2018).
Entries after “also recorded” stand apart in the source; their conditions may differ.

Columns and labels:
[1] = test system: FADS2 expression; test: FADS2 expression in lymphoblasts after drug treatment (qRT-PCR); type: cell-based, human; conditions: 24 hours
Protocol: Immortalized B-lymphocyte (lymphoblast) cell lines from Japanese HapMap participants were obtained from the Coriell Institute for Medical Research, and used within 10 passages of receipt from the repository. Cells were grown in RPMI 1640 with 2 mM L-alanyl-glutamine (Sigma) and 15% fetal bovine serum (media and serum obtained from HyClone) in a humidified environment at 37° C. with 5% CO2. All experiments were conducted on cells grown and treated in parallel in identical media and growth conditions. […]
Quantitative real-time PCR was carried out using SYBR Green Master Mix (Roche) on a LightCycler 480 instrument (Roche). PCR primers were obtained from Integrated DNA Technologies (sequences available upon request), except for 18S, which was obtained from Qiagen as a QuantiTect Primer Assay. PCR reaction efficiency was calculated from standard curves, and reactions were assessed by both melting curves and by running on agarose gels to verify reaction products and the absence of primer-dimers. Quantitative cycle (Cq) values were determined using LightCycler 480 SW1.5.0SP3 software, version 1.5.0.39 (Roche). […] Statistical significance of differences in fold changes between genotypes in response to cell treatments (normalized to vehicle treatment for each genotype) was assessed by the Mann-Whitney U test. […]

[2] = test system: FADS1 expression; test: FADS1 expression in lymphoblasts after drug treatment (qRT-PCR); type: cell-based, human; conditions: 24 hours; for FADS1 response to drug, D/D vs I/I haplotype homozygotes (in words): lymphoblasts, 1 μNI GW3965, 20 μM rosiglitazone
Protocol: Immortalized B-lymphocyte (lymphoblast) cell lines from Japanese HapMap participants were obtained from the Coriell Institute for Medical Research, and used within 10 passages of receipt from the repository. Cells were grown in RPMI 1640 with 2 mM L-alanyl-glutamine (Sigma) and 15% fetal bovine serum (media and serum obtained from HyClone) in a humidified environment at 37° C. with 5% CO2. All experiments were conducted on cells grown and treated in parallel in identical media and growth conditions. […] RNA was extracted using the RNeasy kit (Qiagen), and RNA quality was checked by agarose gel electrophoresis to verify RNA integrity and by 260/280 nm ratios on a NanoDrop 2000 (Thermo Scientific). cDNA was prepared using the High Capacity cDNA Reverse Transcription Kit (Applied Biosystems) according to the manufacturer's protocol.
Quantitative real-time PCR was carried out using SYBR Green Master Mix (Roche) on a LightCycler 480 instrument (Roche). PCR primers were obtained from Integrated DNA Technologies (sequences available upon request), except for 18S, which was obtained from Qiagen as a QuantiTect Primer Assay. PCR reaction efficiency was calculated from standard curves, and reactions were assessed by both melting curves and by running on agarose gels to verify reaction products and the absence of primer-dimers. Quantitative cycle (Cq) values were determined using LightCycler 480 SW1.5.0SP3 software, version 1.5.0.39 (Roche). […] Statistical significance of differences in fold changes between genotypes in response to cell treatments (normalized to vehicle treatment for each genotype) was assessed by the Mann-Whitney U test. Bootstrapping and randomization techniques were used in REST 2009 software (Qiagen) to calculate significance of fold changes normalizing both genotypes to basal expression in I/I allele homozygotes.
Follow-up experiments were carried out in Japanese HapMap lymphoblast cell lines homozygous for the D/D haplotype associated with FADS1 expression, or homozygous for the I/I haplotype. All available D/D haplotype homozygote cell lines were used (n=5), as well as randomly chosen I/I allele homozygote cell lines (n=11).
To investigate the possibility of a causal genetic variation in a transcription factor binding site, cells were treated with drugs acting directly or indirectly on PPARγ or SREBP-1c.

[3] = 5 μNI simvastatin, normalized to vehicle

Compound | FADS2 expression increase in D/D haplotype homozygotes compared with I/I (in words) ([1]; lymphoblasts, normalized to vehicle) | upregulation (induction) of FADS1 higher for the D/D haplotype than for I/I ([2]; D/D vs I/I haplotype homozygote lymphoblasts, 5 μNI simvastatin, 1 μNI GW3965) [%] | final FADS1 expression after treatment, difference between genotypes (in words) ([2]; D/D vs I/I lymphoblasts, normalized to basal I/I expression) | upregulation of FADS1 ([2]; I/I haplotype homozygote lymphoblasts, 5 μNI simvastatin, 1 μNI GW3965, normalized to vehicle) | FADS1 response to drug, D/D vs I/I haplotype homozygotes (in words) [2, 3] | FADS2 response to treatment (in words) ([1]; I/I and D/D lymphoblasts, 20 μM rosiglitazone)
O=C(O)Cc1cccc(OCCCN(Cc2cccc(C(F)(F)F)c2Cl)CC(c2ccccc2)c2ccccc2)c1 [GW3965] | even more | 25 | did not significantly differ; also recorded: no longer significantly different | about two | significantly greater fold increase | –
CN(CCOc1ccc(CC2SC(=O)NC2=O)cc1)c1ccccn1 (stereo not shown) [rosiglitazone] | – | – | – | – | no response | no response
